Entries after “also recorded” stand apart in the source; their conditions may differ.
Tests used:
[1] = system: inter-protomeric and intra-protomeric αSN FRET biosensors in HEK293 cells; experiment: Pilot HTS of the LOPAC library, fluorescence lifetime (FLT) of cellular αSN FRET biosensors; type: cell-based, human; conditions: 10 µM compound, 90 min; hit = FLT change >5 SD
Description: Prior to each pilot HTS, FLT and emission spectrum were measured to verify signal level, basal FRET, coefficient of variance (CV), and similarity index. For each HTS, cells were dispensed into compound plates—1536-well (10 µL/well)—and incubated with the compounds (10 µM) or dimethyl sulfoxide (DMSO; 1%) for 90 min. FLT measurements were acquired with the FLT-PR. After deconvolving the instrument response function, a single exponential fit was used to determine the FLT for both the αSN cellular FRET biosensor (τDA) and the donor-only control biosensor (τD). FRET efficiency was determined by Eq. 1. CV was determined from control plates (N = 384 wells).
Fluorescent compounds (FC) were flagged using a spectral similarity index filter, which evaluates the ratio of intensity from two bandwidths that span the donor emission spectrum and are excluded as potential false positives[45],[46],[49],[51],[66]. […] Compounds that changed FLT by >5 standard deviations (SD) were considered hits (Fig. 5, red data points).
On each day of screening, the compound plates were equilibrated to room temperature (RT; 25 °C). The cells were harvested from the 100-mm plates by incubating with TrypLE (Invitrogen) for 2 min, washed three times in PBS by centrifugation at 200 × g, and filtered using 70-μm cell strainers (BD Falcon). Cell viability prior to screen was assessed using a trypan blue assay and confirmed to be >80%. Cells were diluted to 1.5E6 cells/mL. Expression of GFP-αSN and the αSN biosensors were confirmed by fluorescence microscopy prior to each screen (EvosFL-Auto microscope, Thermo Fisher Scientific, USA). During screening, cells (50 μL/well for 384-well; 10 μL/well for 1536-well) were dispensed by a Multidrop Combi liquid dispenser (Thermo, Pittsburg, PA, USA) into the assay plates containing the compounds and allowed to incubate at RT for 90 min before recording with the FLT-PR or SUPR (both instruments manufactured by Fluorescence Innovations Inc., both owned and provided by Photonic Pharma LLC), as described previously[46].
Interfering compounds were flagged as potential false positives by a set of stringent FC filters based on spectral analysis of each well from the LOPAC screen[45],[46]. After removal of FCs, a histogram of the FLT distribution from all compounds in the screen was plotted and fit to a Gaussian curve to obtain the mean (µ) and SD (σ). A hit was defined as a compound that attenuated the FLT efficiency by >5σ relative to the mean µ (Supplementary Fig. 12).

αSN oligomerization = system: αSN oligomerization; set-up: method as in PMID 23604588; conditions: read-out: apparent EC50, inhibition of αSN oligomerization; cited from earlier work
[2] = system: SH-SY5Y cells overexpressing unlabeled wild-type (WT) αSN; experiment: CytoTox-Glo cytotoxicity assay: rescue of αSN-induced cytotoxicity; type: cell-based, human
Description: Hit compounds were evaluated for rescue of αSN-induced cytotoxicity in using an SH-SY5Y neuroblastoma cell model of alpha-synucleinopathy[18],[69]–[72]. […] A seven-point CRC for RO, BAY, DEM, and Anle138b (positive control compound[41],[73]) was performed to determine IC50 for each compound. […]
Cell cytotoxicity was measured using the CytoTox-Glo (Promega Corporation) Luminescence Assay Kit. SH-SY5Y human neuroblastoma cells were plated at a density of 5 × 10^6 cells/plate in 100 mm plate (Corning) and transfected with unlabeled WT αSN or equivalent vector-only control for 24 h. The transfected cells were then plated at a density of 5000 cells/well in white solid 96-well plate (Corning) with a total volume of 100 μL, followed by treatment with hit compounds spanning a range of concentrations (0.1 nM to 100 μM), as well as DMSO-only controls, for another 48 h. After incubation, 50 μL of CytoTox-Glo Cytotoxicity Assay Reagent was added to all wells followed by mixing by orbital shaking and incubation in the dark for 15 min at RT. Luminescence readings were measured using a Cytation3 Cell Imaging Multi-Mode Reader luminometer (BioTek). After the first read, 50 μL of Lysis Reagent was added, incubated for 15 min at RT, and a second read performed. Total viable cellular luminance was determined by the difference between the first and second luminescence signal and total cellular viability is determined by normalizing to the no-treatment samples.

αSN oligomers = target: T1, αSN oligomers (Homo sapiens, UniProt P37840); experiment: ThT content (β-sheet) of αSN oligomers after oligomerization assay; type: biochemical; conditions: 70 μM compound (1:5 compound:monomer), 12 h oligomerization; vs DMSO
T1 construct: made in house; host or cells: Escherichia coli BL21(DE3), T7-7 plasmid
Description: To explore the presence of β-sheet content in these oligomers, an aliquot was removed prior to cross-linking, diluted into 100 μM ThT working solution, and ThT fluorescence was monitored to detect the presence of β-sheet. Supplementary Fig. 22 presents each sample ThT content normalized to the PFF signal. We observed an increased ThT content in the αSN oligomers (αS-O) that was not affected by DMSO (vehicle) treatment.
A 10-μL aliquot from each sample was taken and diluted with 290 μL ThT working solution (100 μM ThT in PBS) and dispensed into 3 wells of a 384-well, black opaque plate. Additional samples of PBS, αSN(m), and αSN PFF were used as controls. Plates were incubated at ambient temperature for 10 min and then fluorescence read at 450ex/490em on a Spectromax-i3x (Molecular Devices).
Supplemental Figure 22. Characterization of β-sheet content in αSN oligomers due to hit compound
After the 12-hour oligomerization assay aliquots of each sample were
removed and diluted in 100μM ThT and fluorescence read in triplicate (450ex/490em) in 384-well plates. The
ThT signal was normalized to a signal from previously frozen αSN PFF aliquots. After completion of the
PFF, green bar) and the ThT signal was not affected by DMSO (red bar). Oligomerization in the presence of
control compounds, EGCG and Baicalin, at 70μM (a sub-stoichiometric,1:5 compound: monomer ratio)
Our hit compounds RO, DEM, and BAY had differential effects with
both DEM and BAY resulting in increased ThT content and RO not producing a significant change relative to
(1 picture or pasted object on this page, not shown here)

[3] = system: differentiated SH-SY5Y cells treated with sonicated human αSN PFF; experiment: Differentiated SH-SY5Y cell model of αSN PFF pathology (pS129 immunoblot); type: cell-based; conditions: 50 μM Baicalin, 200 nM human PFF, 48 h
Description: SH-SY5Y cells were differentiated using reduced serum (3%) media supplemented with 10 μM retinoic acid for 3 days and then changed to serum-free media supplemented with 10 ng/mL brain-derived neurotrophic factor for the remainder of the experiment. Stock αSN PFFs were diluted and sonicated as described previously. SH-SY5Y cultures were then treated with 200 nM PFF and PBS, DMSO, 1 μM drug compound (RO, BAY, or DEM), or 50 μM Baicalin. After 48 h, SH-SY5Y were washed with PBS and harvested in cold lysis buffer with protease and phosphatase inhibitors, as previously described. Approximately 15 μg of total protein was loaded onto a 4–20% Criterion TGX midi gel and probed using Syn1 (BD Biosciences, #610787; 1° 1:5000; 2° 1:10K) and pS^129 aSyn (abcam, ab59264; 1° 1:1000; 2° 1:5000) and a-tubulin (abcam, ab4074; 1° 1:1000; 2° 1:10K) page 19: Supplemental Figure 18. […] Differentiated SH-SY5Y cells were treated with PBS, vehicle (DMSO) or compounds with and without 200nM sonicated human αSN PFFs. […] These will be removed in subsequent densitometry analysis. (b) Replicates of PFF +/- compound treatment were ran for immunoblot analysis of pS129 immunoreactivity. (c) Densitometry analysis was performed using ImageLab from BioRad. Total pS129 signal (excluding the non- specific bands) was normalized to tubulin loading control. […] Quantification is normalized per lane to highlight change in the ratio of different species. Note, oligomers quantification is plotted relative to the right-y- axis. All statistical comparisons were to DMSO treatment using two-tailed t-test with * p<0.05; ** p<0.01; *** p<0.005.

[4] = target: T2, αSN (15 μM monomeric αSN doped with 5% αSN PFF seeds) (Homo sapiens, UniProt P37840); experiment: Seeded Thioflavin-T aggregation assay; type: biochemical; conditions: 15 μM αSN monomer + 5% PFF; for IC50: 37 °C, max ThT intensity
T2 construct: made in house; host or cells: Escherichia coli BL21(DE3), T7-7 plasmid
Description: Figure 11 and Supplementary Fig. 23 present results from a dose-response-seeded aggregation assay. Vehicle, control, and hit compounds were incubated with 15 µM αSN(m), doped with 5% freshly sonicated αSN PFF in PBS under mild agitation (Supplementary Fig. 23a). […] Titration of control and hit compounds were run in triplicate; representative traces of hit compounds are illustrated in Fig. 11a with a full summary of each titration detailed in Supplementary Fig. 23c–h. IC50 was determined for each compound by determining the max ThT intensity for each concentration (Fig. 11b).
Seeded ThT aggregation assay was performed using 15 μM monomeric αSN doped with 5% (0.75 μM sonicated αSN pre-formed fibril (PFF) seeds) in a 384-well plate under slow agitation (300 RPM) at 37 °C. a Control samples for the aggregation include PBS (black), αSN monomer (brown), 5% αSN PFF (red), and the 15 μM monomer+5% PFF mixture (orange). Dose-response curves were made with a titration of compounds. […] In contrast, RO and DEM both show potent effects relative to Baicalin and EGCG controls. BAY does have some response, but it lags behind other hit compounds. b Normalizing the initial peak in ThT data allows us to estimate an IC50 for each hit. […] Although there is a small trend with BAY, the data cannot be fit to resolve an IC50.
ThT (Sigma, product no. T3516) was dissolved in PBS buffer and was filtered through a 0.2-µm syringe filter to make a stock solution of 2.5 mM. Working ThT concentration was 20 µM. PFF seeds were produced via constant agitation of 1000 RPM at 37 °C (ThermoMixer-C, Eppendorf, Hauppauge, NY) of 500 µL of 350 µM αSN in PBS in a 2 mL tube for 5 days. PFFs were aliquoted and flash frozen and stored at −80 °C until further use. PFF seeds were rapidly thawed, diluted to 35 µM in PBS, and sonicated 120 pulses at 50% using a probe-tip sonicator following the established protocols. Master mix samples for each of the different ThT assays were prepared and dispensed in triplicate as 50 µL in 384-well flat, black-bottom polypropylene plates (PN 781209, Greiner Bio-One) and sealed with fluorescently transparent film. Conditions for non-seeded, seeded, and cell homogenate assays varied slightly.
Seeded ThT experiments were performed at a lower monomer concentration to preclude spontaneous αSN aggregation during the time course of the experiment. For both seeded and cell homogenate experiments, sample were prepared in PBS + 20 µM ThT with or without 15 µM αSN(m) +/− 5% PFF (0.75 µM). Additional control samples of 15 µM PFF and 0.75 µM PFF were also prepared. All empty wells were filled with PBS for a thermal sink and to help prevent evaporation. Assay plates were prepared as pre-cellular FRET dose response above. Dose response was done across 8 concentrations (10 nM to 50 µM). The assay was run at 37 °C with mild shaking (200 RPM) in a Cytation3 plate reader. The ThT fluorescence was monitored with excitation filter of 450 nm and emission filter of 490 nm. Readings were acquired every 20 min for a minimum of 24 h. Seeded ThT aggregation IC50 values were determined by first normalizing all ThT curves to the maximal signal at plateau for the αSN + 5% PFF + DMSO samples. The normalized fluorescence at each concentration was fit to the Hill equation to resolve an effective IC50 of seeded aggregation inhibition.

[5] = target: T3, A53T αSN oligomer (inter-protomeric) FRET biosensor in HEK293 cells (Homo sapiens, UniProt P37840, A53T); experiment: FLT dose response, A53T oligomer (inter-protomeric) FRET biosensor; type: cell-based; conditions: 1 nM to 50 μM
T3 construct: In addition to full-length αSN fusion constructs, we observe both C-terminally and N-terminally truncated αSN species; expressed in transfected cells; host or cells: HEK293
Description: (§1) Hits from the pilot HTS of the LOPAC library were selected and dispensed into 384-well plates to verify reproducible and specific FLT trends using the WT and A53T oligomer (inter-protomeric) FRET biosensors. Figure 6 presents a subset of these dose-response curves for hit compounds RO, BAY, SB206553, and DEM, along with known control compound EGCG. […] Assay quality was determined by Z′ (Eq. 2) where a Z′ > 0.5 indicates good assay quality. Using EGCG as control compound and the hit DEM, we calculated Z′ value of 0.76 and 0.66, respectively, indicating excellent assay quality.
(§2) Fig. 6 FRET dose response of pilot HTS hits. A subset of hits were evaluated using both WT (a) and A53T (b) oligomer biosensor to verify both increased FLT (disrupting αSN–αSN interactions) and decreased FLT (tighter aggregation or remodeled oligomers).
(§3) Compounds were tested in a FLT dose-response assay. The compound was dissolved to 10 mM in DMSO, then serially diluted in 96-well mother plates. Each hit was re-screened for FLT dose response across eight concentrations (1 nM to 50 μM). Compounds (0.5 μL) were transferred from mother plates into assay plates using a Mosquito HV liquid handler (TTP Labtech Ltd, UK). The preparations for αSN FRET biosensors were carried out as above.

[6] = target: T4, intra-protomeric αSN biosensor (GFP-αSN-RFP) in HEK293 cells (Homo sapiens, UniProt P37840); experiment: FRET response on intra-protomeric αSN biosensor; type: cell-based; conditions: 10 µM
T4 construct: In addition to full-length αSN fusion constructs, we observe both C-terminally and N-terminally truncated αSN species; expressed in transfected cells; host or cells: HEK293
Description: Hits were also evaluated with the intra-protomeric αSN and control, non-specific biosensors. […] The compounds RO, BAY, and DEM as well as the control EGCG each reduced FRET, indicating either reduction in oligomerization or expanded oligomer conformation. Tests of these compounds in two control biosensor systems (GFP/RFP at 1:8 and GFP-linker32-RFP; see Supplementary Fig. 13a, b, respectively) show no significant FRET change.
Fig. 7 FRET response to pilot HTS hits on intra-protomeric αSN biosensor. […] With both donor and acceptor XFP fused to one construct, this biosensor is sensitive to both oligomer formation as well as conformation. […] Experiments were performed with n = 3; *p < 0.05, **p < 0.01, ***p < 0.001, ns indicates no significant difference as determined by Student’s t test.

[7] = target: T5, WT αSN oligomer (inter-protomeric) FRET biosensor in HEK293 cells (Homo sapiens, UniProt P37840); experiment: FLT dose response, WT oligomer (inter-protomeric) FRET biosensor; type: cell-based; conditions: 1 nM to 50 μM
T5 construct: In addition to full-length αSN fusion constructs, we observe both C-terminally and N-terminally truncated αSN species; expressed in transfected cells; host or cells: HEK293
Description: as §1, §2, §3

N#C/C(=C\c1ccc(-c2cc(Cl)ccc2Cl)o1)C(=O)Nc1cccc2ncccc12 [AGK2]
identified as hit in the LOPAC screen [1]: identified

Brc1cccc(-c2cc(-c3ccc4c(c3)OCO4)[nH]n2)c1 [Anle138b]
EC50 (αSN oligomerization): 2.8 µM | EC50 ([2]; Homo sapiens, SH-SY5Y, 72-h transfection, 48-h exposure to compound, seven-point CRC, read-out: EC50, protection of SH-SY5Y cells from αSN-induced death): 0.9 µM

O=C(O)[C@H]1O[C@@H](Oc2cc3oc(-c4ccccc4)cc(=O)c3c(O)c2O)[C@H](O)[C@@H](O)[C@@H]1O [Baicalin]
ThT signal of αSN oligomers (αSN oligomers): complete loss of ThT signal | HMW pS129 signal [3]: strong HMW pS^129 signal | LMW oligomer pS129 fraction [3]: significantly reduced | IC50 [4]: 0.387 µM

O=C1Nc2cc(Br)ccc2/C1=C1/Nc2ccccc2/C1=N\O [Bio]
identified as hit in the LOPAC screen [1]: identified

O=C(O[C@@H]1Cc2c(O)cc(O)cc2O[C@@H]1c1cc(O)c(O)c(O)c1)c1cc(O)c(O)c(O)c1 [EGCG]
FLT trend in dose response [5]: reduced donor FLT | ThT signal of αSN oligomers (αSN oligomers): complete loss of ThT signal | change in intra-protomeric FRET [6]: reduced FRET | FLT trend in dose response [7]: reduced donor FLT | IC50 [4]: 1.1 µM

Cn1c(=O)c(-c2c(Cl)cccc2Cl)cc2cnc(Nc3ccc(N4CCOCC4)cc3)nc21 [PD173952]
identified as hit in the LOPAC screen [1]: identified

SB206553
FLT trend in dose response [5]: increasing FLT trend; also recorded: mild recovery of FLT | FLT trend in dose response [7]: increasing FLT trend; also recorded: mild recovery of FLT | rescue of αSN-induced cytotoxicity ([2]; dose response, 48-h exposure): no observed effect on cytotoxicity | rescue of toxicity in three-dose preliminary screen ([2]; three-dose assay): no rescue of toxicity | effect on seeded aggregation ([4]; titration up to 50 μM): no aggregation inhibition; also recorded: little to no effect on aggregation

Source: article PMC8238948, “Potent inhibitors of toxic alpha-synuclein identified via cellular time-resolved FRET biosensors” (NPJ Parkinson's Disease, 2021)
